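Five concentrations, 48 hours, 96-well plates. TGI denotes the concentration required for complete inhibition of growth.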
Experiments:
Experiment in all cases: NCI-60 cell line screen, 48 h
KM12 colon = system: KM12 colon
A498 renal = system: A498 renal
M14 melanoma = system: M14 melanoma
NCI-H23 lung = system: NCI-H23 lung
MOLT-4 leukemia = system: MOLT-4 leukemia
HCC-2998 colon = system: HCC-2998 colon
SK-OV-3 ovarian = system: SK-OV-3 ovarian
OVCAR-5 ovarian = system: OVCAR-5 ovarian
OVCAR-8 ovarian = system: OVCAR-8 ovarian
MDA-N = system: MDA-N
UACC-62 melanoma = system: UACC-62 melanoma
NCI-H522 lung = system: NCI-H522 lung
PC-3 prostate = system: PC-3 prostate
UO-31 renal = system: UO-31 renal
DU-145 prostate = system: DU-145 prostate
NCI-H460 lung = system: NCI-H460 lung
SF-295 CNS = system: SF-295 CNS
IGROV1 ovarian = system: IGROV1 ovarian
HT29 colon = system: HT29 colon
HCT-15 colon = system: HCT-15 colon
MALME-3M melanoma = system: MALME-3M melanoma
SNB-19 CNS = system: SNB-19 CNS
CAKI-1 renal = system: CAKI-1 renal
U251 CNS = system: U251 CNS
MCF7 breast = system: MCF7 breast
SK-MEL-5 melanoma = system: SK-MEL-5 melanoma
BT-549 breast = system: BT-549 breast
HCT-116 colon = system: HCT-116 colon
COLO 205 colon = system: COLO 205 colon
K-562 leukemia = system: K-562 leukemia
SK-MEL-28 melanoma = system: SK-MEL-28 melanoma
CCRF-CEM leukemia = system: CCRF-CEM leukemia
HS 578T breast = system: HS 578T breast
SNB-75 CNS = system: SNB-75 CNS
MDA-MB-435 = system: MDA-MB-435
NCI/ADR-RES ovarian = system: NCI/ADR-RES ovarian
SR leukemia = system: SR leukemia
SN12C renal = system: SN12C renal
MDA-MB-231 breast = system: MDA-MB-231 breast
OVCAR-4 ovarian = system: OVCAR-4 ovarian
T-47D breast = system: T-47D breast
OVCAR-3 ovarian = system: OVCAR-3 ovarian
SK-MEL-2 melanoma = system: SK-MEL-2 melanoma
RPMI-8226 leukemia = system: RPMI-8226 leukemia
HOP-62 NSCLC = system: HOP-62 NSCLC
NCI-H226 lung = system: NCI-H226 lung
RXF 393 renal = system: RXF 393 renal
786-0 renal = system: 786-0 renal
LOX IMVI melanoma = system: LOX IMVI melanoma
UACC-257 melanoma = system: UACC-257 melanoma
SF-539 CNS = system: SF-539 CNS
HL-60(TB) leukemia = system: HL-60(TB) leukemia
SW-620 colon = system: SW-620 colon
EKVX NSCLC = system: EKVX NSCLC
TK-10 renal = system: TK-10 renal
SF-268 CNS = system: SF-268 CNS
ACHN renal = system: ACHN renal
A549 NSCLC = system: A549 NSCLC

Measured: TGI

S=C1SC(=Nc2ccccc2)C(=Nc2ccccc2)N1c1ccccc1
73.7 µM: SNB-75 CNS
not listed: 786-0 renal | LOX IMVI melanoma | UACC-257 melanoma | SF-539 CNS | HL-60(TB) leukemia | SW-620 colon | EKVX NSCLC | TK-10 renal | SF-268 CNS | ACHN renal | A549 NSCLC
> 100 µM: all other assays above

CCOC(=O)c1ccc(Nc2nc3cc(C(F)(F)F)ccc3nc2-c2ccccc2)cc1
84.2 µM: HS 578T breast
29.4 µM: UACC-62 melanoma
98 µM: RXF 393 renal
69.2 µM: PC-3 prostate
89.5 µM: HCC-2998 colon
47.5 µM: ACHN renal
91.6 µM: T-47D breast
> 10 µM: MOLT-4 leukemia | TK-10 renal | HT29 colon
44.8 µM: 786-0 renal
60.6 µM: SF-295 CNS
61.7 µM: HOP-62 NSCLC
39.4 µM: SNB-75 CNS
49.5 µM: U251 CNS
not listed: A498 renal | M14 melanoma | SK-OV-3 ovarian | OVCAR-4 ovarian | SK-MEL-2 melanoma
> 100 µM: all other assays above

O=C1C=CC2(O[C@H](c3ccccc3)[C@@H](c3ccccc3)O2)C(SC(=O)c2ccccc2)C1 (stereo partly specified)
15.6 µM: NCI-H460 lung
5.63 µM: SNB-19 CNS
3.07 µM: M14 melanoma
2.66 µM: UO-31 renal
7.01 µM: SK-OV-3 ovarian
1.65 µM: BT-549 breast
3.51 µM: SK-MEL-2 melanoma
4.32 µM: NCI-H226 lung
2.2 µM: HCT-15 colon
6.64 µM: TK-10 renal
3.27 µM: OVCAR-5 ovarian
3.01 µM: ACHN renal
17.4 µM: A549 NSCLC
0.726 µM: RXF 393 renal
4.41 µM: OVCAR-3 ovarian
4.58 µM: PC-3 prostate
1.53 µM: HCT-116 colon
20.6 µM: A498 renal
7.89 µM: T-47D breast
2.33 µM: LOX IMVI melanoma
3.02 µM: SF-268 CNS
3.25 µM: RPMI-8226 leukemia
6.85 µM: SF-295 CNS
6.53 µM: CAKI-1 renal
3.22 µM: NCI/ADR-RES ovarian
5.04 µM: HS 578T breast
6.87 µM: KM12 colon
2.83 µM: MCF7 breast
2.87 µM: SK-MEL-5 melanoma
3.82 µM: NCI-H23 lung
2.9 µM: U251 CNS
7.7 µM: HL-60(TB) leukemia
3.31 µM: HOP-62 NSCLC
0.811 µM: SW-620 colon
18 µM: MDA-MB-231 breast
2.86 µM: IGROV1 ovarian
2.69 µM: COLO 205 colon
3.55 µM: SK-MEL-28 melanoma
3.89 µM: HT29 colon
5.84 µM: UACC-62 melanoma
6.42 µM: SN12C renal
3.32 µM: MDA-N
1.76 µM: 786-0 renal
3.97 µM: UACC-257 melanoma
3.29 µM: SF-539 CNS
4.8 µM: MDA-MB-435
5.13 µM: OVCAR-4 ovarian
6.54 µM: MALME-3M melanoma
> 100 µM: MOLT-4 leukemia | DU-145 prostate | K-562 leukemia | SR leukemia
0.516 µM: OVCAR-8 ovarian
5.34 µM: SNB-75 CNS

COc1ccc(N(C)S(=O)(=O)c2ccccc2)cc1
not listed: A498 renal
> 100 µM: all other assays above
